*1 amine or outer side, *2 acyl side, *3 side chain or, on linkers, in order; H or OH if unused. Where a SMILES comes first, the peptide text is derived from it. Bridges are numbered along the chain shown (N, C = ends). [ ]: non-standard residue; d: D form. The star is where a group is joined. TATA = O=C(CC[*:1])N1CN(C(=O)CC[*:2])CN(C(=O)CC[*:3])C1; NOTA = O=C(O)CN1CCN(CC(=O)O)CCN(CC(=O)*)CC1; Hyp = O=C(O)[C@@H]1C[C@@H](O)CN1; hArg = N=C(N)NCCCC[C@H](N)C(=O)O; PEG2 = NCCOCCOCCC(=O)O; Sar = CNCC(=O)O
Tests used:
Panc1 tumor xenografts = test: Whole-body dynamic PET pharmacokinetics; type: in vivo, NSG mice; conditions: ~250 µCi i.v., remaining constant until 90 min
Protocol: Dynamic PET images were acquired on a Simultaneous 7T Bruker PET-MR scanner to evaluate the pharmacokinetics of [^68Ga]AJ201. Mice bearing Panc1 tumor xenografts were anesthetized under 2.5% isoflurane and a catheter was fixed in the tail vein before being secured on the PET-MR bed. An activity of ~250 µCi (9.3 MBq; 0.5 to 0.8 nmol) of [^68Ga]AJ201 was administered intravenously and whole-body PET dynamic scans were performed. Dynamic PET scans were initiated one min before radiotracer injection and acquired at varying intervals to capture early and late-phase kinetics: every 30 s from -1 to 5 min, every min from 5 to 15 min, every 3 min from 15 to 30 min, every 5 min from 30 to 60 min, and every 10 min from 60 to 90 min. The acquired PET data were reconstructed and corrected for radioactive decay and dead time using ParaVision 360 V2 by Bruker. The percentage of injected dose per cc (%ID/cc) values were obtained by drawing ROI on the tumor, muscle, heart, liver and kidney using PMOD software, and image fusion and visualization were also performed using PMOD software.

[1] = In vitro stability of radiotracers in human serum; type: in vitro ADME; conditions: radio-RP-HPLC after ultrafiltration (10 kDa)
Protocol: The stability of the radiotracers was assessed in saline and human serum at 37 °C to mimic physiological conditions. Approximately 1.5 mCi of the radiotracer, prepared in 100-150 µL of saline, was added to 0.5 mL of either saline or human serum in separate microcentrifuge tubes. The mixtures were gently vortexed and then incubated at 37 °C in an incubator. At predetermined time-points (1, 2, and 3 h), 100 µL aliquots were collected from the incubation mixtures for analysis. For serum samples, proteins were removed by adding 100 µL of saline and 50 µL of ethanol, followed by ultrafiltration using 10 kDa centrifugal filters made of regenerative cellulose membranes. The filtration process was performed by centrifugation at 14,000 rpm for 10 min and repeated once more to ensure complete protein removal. The filtrate was collected for analysis. The radiochemical integrity of the radiotracer in both saline and serum was evaluated using radio-RP-HPLC.

CC(C)C[C@@H]1NC(=O)[C@@H]2CSCCC(=O)N3CN(CN(C3)C(=O)CCSC[C@H](NC(=O)[C@H](CC(=O)O)NC(=O)[C@H](CCCCNC(=N)N)NC(=O)[C@H](C)NC(=O)CNC(=O)CN(C)C(=O)CN(C)C(=O)CN(C)C(=O)[C@H](CCCNC(=N)N)NC(=O)CNC(=O)CCOCCOCCNC(=O)CN3CCN(CC(=O)O)CCN(CC(=O)O)CC3)C(=O)N3C[C@H](O)C[C@H]3C(=O)N[C@@H](CC(C)C)C(=O)N[C@@H](C(C)C)C(=O)N[C@@H](CC(N)=O)C(=O)N3CCC[C@H]3C(=O)N[C@@H](CC(C)C)C(=O)N2)C(=O)CCSC[C@@H](C(N)=O)NC(=O)[C@H](CCCCNC(=N)N)NC(=O)[C@H](Cc2c[nH]c3ccccc23)NC(=O)[C@@H](CC(=O)O)NC(=O)[C@@H]2CCCN2C(=O)[C@H](Cc2c[nH]cn2)NC1=O [[^68Ga]AJ201, metal not drawn] ({NOTA-PEG2}-GR[Sar][Sar][Sar]GA[hArg]DC[Hyp]LVNPLCLHP[dD]W[hArg]C-NH2; linker 10-17-24 via TATA)
Time of peak tumor radioactivity (ROI analysis) (Panc1 tumor xenografts): 30 min | Stability in human serum (radio-HPLC finding) ([1]; 37 °C, 1, 2 and 3 h, ~1.5 mCi in 0.5 mL): stable without noticeable degradation or impurity formation | Time of stability in human serum ([1]; 37 °C): at least 3 h
